# According to patent US5726325A, “Tricyclic compounds” (Kyowa Hakko Kogyo Co., Ltd., priority 1995, dated 1998):
# Legend:
# [1] = test system: detrusor muscle; test: Test Example 2: relaxation of guinea pig bladder strips, rhythmical contraction induced by 15 mM KCl; type: cell-based, guinea pig (male albino Hartley); conditions: Cavia porcellus, concentration decreasing detrusor contraction by 50%
# Source text: (§1) The activity of Compound (I) as a smooth muscle relaxant which is useful as a therapeutic agent for urinary incontinence can be observed, for example, using the following tests. In the following Test Examples 1 and 2, "IC50 " means the concentration of a test compound which induces the decrease in the contraction of detrusor muscle by 50%.
# (§2) Male albino Hartley guinea pigs (350-550 g) were used as test animals. Each animal was exsanguinated to death under pentobarbital sodium anesthesia. The lower abdominal cavity was opened and its bladder was positioned. The connective tissue and the fat tissue around the bladder were removed, and the bladder was cleaned. After two pelvic nerves on the surface of the abdominal side of the bladder were dissected, the bladder was taken out on the entrance of ureter. The bladder was washed with a Krebs-Henseleit buffer [composition (mM): NaCl 118, KCl 4.7, MgSO4 1.2, KH2 PO4 1.2, CaCl2 2.5, NaHCO3 25, and D-glucose 11.1], and then put on a gauze patch soaked in the buffer in a Petri dish. The dome and the trigone of the bladder were dissected and discarded. The back of the bladder was cut vertically in the middle with scissors, and the bladder was put flat on the gauze patch. The dome tip and the side of the trigone of the bladder were dissected and discarded, and the mucosa of the bladder was removed. The back of the bladder was cut vertically to get 6 strips which are ca. 2.0 mm wide and ca. 10 mm long.
# (§3) One end of each strip was fixed on a plastic supporter rod, and the other end was fixed on a clip connected to a suture thread. The supporter was fixed in 20 ml of an organ bath and the suture thread connected to the clip was fixed on a force-displacement transducer (NIHON KODEN TB-611T). The tissue was suspended in a Krebs-Henseleit buffer, and the bath solution was warmed to 37° C. and bubbled with a gas mixture of 5% CO2 and 95% O2. The pH of the solution was adjusted to about 7.4. The transducer was connected to a polygraph (NIHON KODEN AP-621G), and the change of tension was recorded on a recorder (YOKOGAWA type 3066). The polygraph was graduated by 0.5 g/cm.
# The effect of a smooth muscle relaxant varies with the concentration of KCl based on the difference of an action mechanism. In the following Test Example, KCl was used at a concentration different from that in Test Example 1.
# A sample of the excised bladder was prepared in the same manner as in Test Example 1, and the tension of the preparation was measured. After the tension of the tissue was adjusted to be a steady state at 1 g, 15 mM KCl was applied. After the rhythmical contraction was confirmed to appear by KCl, the tissue was washed. Then, 15 mM KCl was applied again. After the rhythmical contraction took place constantly and the tissue reached the steady state, a test compound was applied by the cumulative method (half-logarithmic incremence). The contact time at each concentration was 30 minutes. The activity of the compound was expressed as the maximum relaxation rate (%) of the tension induced by the agonist.
# [2] = test system: detrusor muscle; test: Test Example 1: relaxation of guinea pig bladder strips contracted with 50 mM KCl; type: cell-based, guinea pig (male albino Hartley); conditions: Cavia porcellus; contraction induced by 50 mM KCl; concentration decreasing detrusor contraction by 50%
# Source text: as §1, §2, §3
# After the tissue was incubated in the buffer for 15 minutes without preloading, tension was added thereto for about one hour. The preloading tension added was 1.5 g and it was relaxed to about 1 g. The tissue was washed at intervals of 15 minutes and the tension was adjusted to 1.5 g just before washing. The tension of the tissue was adjusted to be a steady state at 1 g. After this equilibrium time, 50 mM KCl (the whole content in the bath) was added, and the tissue was washed 10 minutes later. KCl was added to the tissue at intervals of 30 minutes, followed by washing 10 minutes later, and KCl was applied repeatedly until the developed tension induced by KCl becomes constant. When the tissue was confirmed to contract constantly by the application of KCl and relax to the steady state after washing, 50 mM KCl was applied again. After the tissue reached the steady state and the base line was obtained, a test compound was applied by the cumulative method (half-logarithmic incremence). The contact time at each concentration was 30 minutes. The activity of the compound was expressed as the maximum relaxation rate (%) of the tension induced by the agonist.
# [3] = test system: bladder; test: Test Example 4: micturition contraction interval in rats under partial restraint, oral; type: in vivo, rat (male SD strain); conditions: Rattus norvegicus, 1 mg/kg oral, pre-administration = 100
# Source text: As a control compound, cromakalim was used.
SMILES,IC50 [1] [µM],IC50 [2] [µM],further results
"CC(O)(C(=O)Nc1cccc2c1C(=O)c1ccsc1C[S+]2[O-])C(F)(F)F (stereo not shown) [Compound 50, 9-Oxo-5-(3,3,3-trifluoro-2-hydroxy-2-methylpropanoylamino)-4,10-dihydrothieno[2,3-c][1]benzothiepin-4-one]",6.1,–,–
"CC(O)(C(=O)Nc1ccc2c(c1)CCc1ccccc1C2=O)C(F)(F)F (stereo not shown) [Compound 54, 2-(3,3,3-Trifluoro-2-hydroxy-2-methylpropanoylamino)-10,11-dihydro-5H-dibenzo[a,d]cyclohepten-5-one]",> 10,3.8,–
"CC(O)(C(=O)Nc1ccc2c(c1)SCc1ccsc1C2=O)C(F)(F)F (stereo not shown) [Compound 45, 7-(3,3,3-Trifluoro-2-hydroxy-2-methylpropanoylamino)-4,10-dihydrothieno[3,2-c][1]benzothiepin-10-one]",2.5,> 10,–
"CC(O)(C(=O)Nc1cccc2c1C(=O)c1ccccc1CS2)C(F)(F)F (stereo not shown) [Compound 40, 1-(3,3,3-Trifluoro-2-hydroxy-2-methylpropanoylamino)-6,11-dihydrodibenzo[b,e]thiepin-11-one]",3.5,1.5,–
"CC(O)(C(=O)Nc1ccc2c(c1)C(=O)c1ccccc1CO2)C(F)(F)F (stereo not shown) [Compound 3, 2-(3,3,3-Trifluoro-2-hydroxy-2-methylpropanoylamino)-6,11-dihydrodibenz[b,e]oxepin-11-one]",1.8,2.2,–
"CC(O)(C(=O)Nc1cccc2ccc3ccoc3c(=O)c12)C(F)(F)F (stereo not shown) [Compound 67, 9-(3,3,3-Trifluoro-2-hydroxy-2-methylpropanoylamino)-10H-benzo[5,6]cyclohepta[1,2-b]furan-10-one]",3.8,6.9,–
"CC1(C)Oc2ccc(C#N)cc2C(N2CCCC2=O)C1O (stereo not shown) [Cromakalim, cromakalim, reference compound]",–,–,response vs control in vivo at 1 mg/kg ([3]; 1 hr): 128%; response vs control in vivo at 1 mg/kg ([3]; 2 hr): 133%; response vs control in vivo at 1 mg/kg ([3]; 3 hr): 142%; response vs control in vivo at 1 mg/kg ([3]; 4 hr): 133%; response vs control in vivo at 1 mg/kg ([3]; 5 hr): 133%
"CC(O)(C(=O)Nc1cccc2c1C(=O)c1ccccc1-2)C(F)(F)F (stereo not shown) [Compound 4, 1-(3,3,3-Trifluoro-2-hydroxy-2-methylpropanoylamino)fluoren-9-one]",8.4,2.6,–
"CC(O)(C(=O)Nc1ccc2c(=O)c3ccccc3ccc2c1)C(F)(F)F (stereo not shown) [Compound 62, 2-(3,3,3-Trifluoro-2-hydroxy-2-methylpropanoylamino)-5H-dibenzo[a,d]cyclohepten-5-one]",> 10,9.3,–
"C[C@@](O)(C(=O)Nc1ccc2c(c1)OCc1occc1C2=O)C(F)(F)F [Compound 38, (R)-7-(3,3,3-Trifluoro-2-hydroxy-2-methylpropanoylamino)-4,10-dihydrofuro[2,3-c][1]benzoxepin-4-one]",0.9,13.4,–
"CC(O)(C(=O)Nc1cccc2ccc3sccc3c(=O)c12)C(F)(F)F (stereo not shown) [Compound 66, 5-(3,3,3-Trifluoro-2-hydroxy-2-methylpropanoylamino)-4H-benzo[4,5]cyclohepta[1,2-b]thiophen-4-one]",2.1,1.4,–
"CC(O)(C(=O)Nc1cccc2c1C(=O)c1ccoc1CS2)C(F)(F)F (stereo not shown) [Compound 42, 5(3,3,3-Trifluoro-2-hydroxy-2-methylpropanoylamino)-4,10-dihydrofuro[2,3-c][1]benzothiepin-4-one]",1.5,4.7,–
"CC(O)(C(=O)Nc1ccc2c(c1)[S+]([O-])Cc1sccc1C2=O)C(F)(F)F (stereo not shown) [Compound 51, 9-Oxo-7-(3,3,3-trifluoro-2-hydroxy-2-methylpropanoylamino)-4,10-dihydrothieno[2,3-c][1]benzothiepin-4-one]",5.7,–,–
"CC(O)(C(=O)Nc1ccc2c(c1)SCc1sccc1C2=O)C(F)(F)F (stereo not shown) [Compound 47, 7-(3,3,3-Trifluoro-2-hydroxy-2-methylpropanoylamino)-4,10-dihydrothieno[2,3-c][1]benzothiepin-4-one]",6.1,–,–
